Drawing on ChEMBL document CHEMBL3046614, “Overexpression of the sterol 14α-demethylase gene (MgCYP51) in Mycosphaerella graminicola isolates confers a novel azole fungicide sensitivity phenotype” (Pest Manag Sci, 2012), this text covers EC50 and Activity for four compounds.

Usually EC50 stands for the concentration that produces a half-maximal response.

Converted amounts (≈) assume the structure as drawn. The source made the active and inactive calls. No cut-off for these calls is given here.

One test has as its system Zymoseptoria tritici. Put plainly: Fungicidal activity against Zymoseptoria tritici isolate R03-54 without 120 bp insertion expressing CYP51 variant with combination of L50S, S188N, I381V, deltaY459/G460 and N513K mutations assessed as fungal growth inhibition. In kind it is functional, organism-based.
On to `OC(Cc1ccccc1Cl)(Cn1cncn1)C1(Cl)CC1` (stereo not drawn) [PROTHIOCONAZOLE-DESTHIO], for which the 50% effective concentration (EC50) was found to be 0.0055 µg/mL.
As for `CC(C)(C)C(O)(CCc1ccc(Cl)cc1)Cn1cncn1` (stereo not drawn) [TEBUCONAZOLE], the EC50 is 1.5 µg/mL.

In the next test the test system is Zymoseptoria tritici. As to the kind of experiment: Fungicidal activity against Zymoseptoria tritici isolate R03-29 without 120 bp insertion expressing CYP51 variant with combination of L50S, S188N, I381V, deltaY459/G460 and N513K mutations assessed as fungal growth inhibition. Type of test: functional, organism-based.
As to `CC1(C)CCC(Cc2ccc(Cl)cc2)C1(O)Cn1cncn1` (stereo not drawn) [METCONAZOLE], the EC50 amounted to 0.032 µg/mL.
Regarding `OC(Cc1ccccc1Cl)(Cn1cncn1)C1(Cl)CC1` (stereo not drawn) [PROTHIOCONAZOLE-DESTHIO], the half-maximal effective concentration (EC50) came to 0.0091 µg/mL.
`CC(C)(C)C(O)(CCc1ccc(Cl)cc1)Cn1cncn1` (stereo not drawn) [TEBUCONAZOLE]: the concentration for a half-maximal effect (EC50) was determined as 2.7 µg/mL.
Still for that read-out and setting: the figure for `CN(C/C=C/C#CC(C)(C)C)Cc1cccc2ccccc12` [TERBINAFINE] is 0.063 µg/mL.

A further test concerns Zymoseptoria tritici. Put plainly: Fungicidal activity against Zymoseptoria tritici isolate TAG74-3 with 120 bp insertion expressing CYP51 variant with combination of L50S, S188N, I381V, deltaY459/G460 and N513K mutations inoculated on compound pre-treated wheat cultivar Riband seedlings assessed as pycnidia formation at doses > 1/16 recommended field rate measured 21 days post fungal inoculation. In kind it is functional, organism-based.
Regarding `CC1(C)CCC(Cc2ccc(Cl)cc2)C1(O)Cn1cncn1` (stereo not drawn) [METCONAZOLE], the outcome was Active.

A further test relates to Zymoseptoria tritici. Put plainly: Fungicidal activity against Zymoseptoria tritici isolate TAG74-3 with 120 bp insertion expressing CYP51 variant with combination of L50S, S188N, I381V, deltaY459/G460 and N513K mutations inoculated on compound pre-treated wheat cultivar Riband seedlings assessed as fungal DNA level at doses > 1/16 recommended field rate measured 21 days post fungal inoculation. In kind it is functional, organism-based.
Regarding `CC1(C)CCC(Cc2ccc(Cl)cc2)C1(O)Cn1cncn1` (stereo not drawn) [METCONAZOLE], the outcome was Active.

The test system of a further test is Zymoseptoria tritici. As to the kind of experiment: Fungicidal activity against Zymoseptoria tritici isolate OP7 with 120 bp insertion expressing CYP51 variant with combination of L50S, S188N, I381V, deltaY459/G460 and N513K mutations inoculated on compound pre-treated wheat cultivar Riband seedlings assessed as fungal DNA level at doses > 1/16 recommended field rate measured 21 days post fungal inoculation. In kind it is functional, organism-based.
For the compound `CC1(C)CCC(Cc2ccc(Cl)cc2)C1(O)Cn1cncn1` (stereo not drawn) [METCONAZOLE], the outcome was Active.

In another test the test system is Zymoseptoria tritici. Put plainly: Fungicidal activity against Zymoseptoria tritici isolate OP7 with 120 bp insertion expressing CYP51 variant with combination of L50S, S188N, I381V, deltaY459/G460 and N513K mutations inoculated on compound pre-treated wheat cultivar Riband seedlings assessed as fungal DNA level at 28.13 ppm measured 21 days post fungal inoculation. In kind it is functional.
In the case of `CC1(C)CCC(Cc2ccc(Cl)cc2)C1(O)Cn1cncn1` (stereo not drawn) [METCONAZOLE], the Activity worked out at 5674 pg.

A further test concerns Zymoseptoria tritici. Put plainly: Fungicidal activity against Zymoseptoria tritici isolate TAG74-3 with 120 bp insertion expressing CYP51 variant with combination of L50S, S188N, I381V, deltaY459/G460 and N513K mutations inoculated on compound pre-treated wheat cultivar Riband seedlings assessed as pycnidia formation at 28.13 ppm measured 21 days post fungal inoculation. In kind it is functional, organism-based.
As for `CC1(C)CCC(Cc2ccc(Cl)cc2)C1(O)Cn1cncn1` (stereo not drawn) [METCONAZOLE], the result was inactive.

The next test deals with Zymoseptoria tritici. As to the kind of experiment: Fungicidal activity against Zymoseptoria tritici isolate OP6 without 120 bp insertion expressing CYP51 variant with combination of L50S, S188N, I381V, deltaY459/G460 and N513K mutations inoculated on compound pre-treated wheat cultivar Riband seedlings assessed as fungal DNA level at 28.13 ppm measured 21 days post fungal inoculation. Type of test: functional.
For `CC1(C)CCC(Cc2ccc(Cl)cc2)C1(O)Cn1cncn1` (stereo not drawn) [METCONAZOLE], the Activity is recorded as 65 pg.

A further test relates to Zymoseptoria tritici. Put plainly: Fungicidal activity against Zymoseptoria tritici isolate TAG1-18 with 120 bp insertion expressing CYP51 variant with combination of L50S, S188N, I381V, deltaY459/G460 and N513K mutations assessed as fungal growth inhibition. In kind it is functional, organism-based.
Regarding `CC1(C)CCC(Cc2ccc(Cl)cc2)C1(O)Cn1cncn1` (stereo not drawn) [METCONAZOLE], the EC50 amounted to 0.602 µg/mL.
`OC(Cc1ccccc1Cl)(Cn1cncn1)C1(Cl)CC1` (stereo not drawn) [PROTHIOCONAZOLE-DESTHIO]: the 50% effective concentration (EC50) came to 0.12 µg/mL.
On the same count and under the same terms, as for `CC(C)(C)C(O)(CCc1ccc(Cl)cc1)Cn1cncn1` (stereo not drawn) [TEBUCONAZOLE], the figure is 7.81 µg/mL; as for `CN(C/C=C/C#CC(C)(C)C)Cc1cccc2ccccc12` [TERBINAFINE], 0.053 µg/mL.

For the next test, the system named is Zymoseptoria tritici. Put plainly: Fungicidal activity against Zymoseptoria tritici isolate R10-13 without 120 bp insertion expressing CYP51 variant with combination of L50S, S188N, I381V, deltaY459/G460 and N513K mutations assessed as fungal growth inhibition. In kind it is functional, organism-based.
For `CC1(C)CCC(Cc2ccc(Cl)cc2)C1(O)Cn1cncn1` (stereo not drawn) [METCONAZOLE], the EC50 was 0.097 µg/mL.
Still for that read-out and setting: as for `OC(Cc1ccccc1Cl)(Cn1cncn1)C1(Cl)CC1` (stereo not drawn) [PROTHIOCONAZOLE-DESTHIO], the figure is 0.0111 µg/mL.
Still for that read-out and setting: as for `CC(C)(C)C(O)(CCc1ccc(Cl)cc1)Cn1cncn1` (stereo not drawn) [TEBUCONAZOLE], the figure is 2.34 µg/mL.
Same read-out and setting: as for `CN(C/C=C/C#CC(C)(C)C)Cc1cccc2ccccc12` [TERBINAFINE], the figure is 0.082 µg/mL.

The next test relates to Zymoseptoria tritici. Put plainly: Fungicidal activity against Zymoseptoria tritici isolate OP6 without 120 bp insertion expressing CYP51 variant with combination of L50S, S188N, I381V, deltaY459/G460 and N513K mutations assessed as fungal growth inhibition. In kind it is functional, organism-based.
With `CC1(C)CCC(Cc2ccc(Cl)cc2)C1(O)Cn1cncn1` (stereo not drawn) [METCONAZOLE], the EC50 came out at 0.051 µg/mL.
Same read-out and setting: as for `OC(Cc1ccccc1Cl)(Cn1cncn1)C1(Cl)CC1` (stereo not drawn) [PROTHIOCONAZOLE-DESTHIO], the figure is 0.0126 µg/mL; as for `CC(C)(C)C(O)(CCc1ccc(Cl)cc1)Cn1cncn1` (stereo not drawn) [TEBUCONAZOLE], 1.24 µg/mL.
Still for that read-out and setting: the figure for `CN(C/C=C/C#CC(C)(C)C)Cc1cccc2ccccc12` [TERBINAFINE] is 0.048 µg/mL.

For a further test, the system named is Zymoseptoria tritici. Put plainly: Fungicidal activity against Zymoseptoria tritici isolate OP7 with 120 bp insertion expressing CYP51 variant with combination of L50S, S188N, I381V, deltaY459/G460 and N513K mutations assessed as fungal growth inhibition. Type of test: functional, organism-based.
For `CC1(C)CCC(Cc2ccc(Cl)cc2)C1(O)Cn1cncn1` (stereo not drawn) [METCONAZOLE], the concentration for a half-maximal effect (EC50) is 0.821 µg/mL.
Take `OC(Cc1ccccc1Cl)(Cn1cncn1)C1(Cl)CC1` (stereo not drawn) [PROTHIOCONAZOLE-DESTHIO]: the EC50 came to 0.135 µg/mL.
With `CC(C)(C)C(O)(CCc1ccc(Cl)cc1)Cn1cncn1` (stereo not drawn) [TEBUCONAZOLE], the EC50 was 8.22 µg/mL.
Take `CN(C/C=C/C#CC(C)(C)C)Cc1cccc2ccccc12` [TERBINAFINE]: the EC50 is 0.045 µg/mL.

In a further test the test system is Zymoseptoria tritici. Put plainly: Fungicidal activity against Zymoseptoria tritici isolate R10-13 without 120 bp insertion expressing CYP51 variant with combination of L50S, S188N, I381V, deltaY459/G460 and N513K mutations inoculated on compound pre-treated wheat cultivar Riband seedlings assessed as fungal DNA level at 28.13 ppm measured 21 days post fungal inoculation. In kind it is functional.
Consider `CC1(C)CCC(Cc2ccc(Cl)cc2)C1(O)Cn1cncn1` (stereo not drawn) [METCONAZOLE], for which the Activity stood at 106 pg.

For another test, the system named is Zymoseptoria tritici. As to the kind of experiment: Fungicidal activity against Zymoseptoria tritici isolate OP7 with 120 bp insertion expressing CYP51 variant with combination of L50S, S188N, I381V, deltaY459/G460 and N513K mutations inoculated on compound pre-treated wheat cultivar Riband seedlings assessed as pycnidia formation at doses > 1/16 recommended field rate measured 21 days post fungal inoculation. In kind it is functional, organism-based.
`CC1(C)CCC(Cc2ccc(Cl)cc2)C1(O)Cn1cncn1` (stereo not drawn) [METCONAZOLE]: the result was Active.

The test system of another test is Zymoseptoria tritici. As to the kind of experiment: Fungicidal activity against Zymoseptoria tritici isolate TAG74-3 with 120 bp insertion expressing CYP51 variant with combination of L50S, S188N, I381V, deltaY459/G460 and N513K mutations assessed as fungal growth inhibition. Type of test: functional, organism-based.
Regarding `CC1(C)CCC(Cc2ccc(Cl)cc2)C1(O)Cn1cncn1` (stereo not drawn) [METCONAZOLE], the EC50 was 1.39 µg/mL.
Still for that read-out and setting: as for `OC(Cc1ccccc1Cl)(Cn1cncn1)C1(Cl)CC1` (stereo not drawn) [PROTHIOCONAZOLE-DESTHIO], the figure is 0.221 µg/mL; as for `CC(C)(C)C(O)(CCc1ccc(Cl)cc1)Cn1cncn1` (stereo not drawn) [TEBUCONAZOLE], 20.7 µg/mL.
With `CN(C/C=C/C#CC(C)(C)C)Cc1cccc2ccccc12` [TERBINAFINE], the concentration giving a half-maximal response (EC50) was 0.061 µg/mL.

In the next test the test system is Zymoseptoria tritici. Put plainly: Fungicidal activity against Zymoseptoria tritici isolate IPO323 without 120 bp insertion expressing wild type CYP51 assessed as fungal growth inhibition. Type of test: functional, organism-based.
For the compound `CC1(C)CCC(Cc2ccc(Cl)cc2)C1(O)Cn1cncn1` (stereo not drawn) [METCONAZOLE], the EC50 is less than 0.0002 µg/mL.
Same read-out and setting: the figure for `OC(Cc1ccccc1Cl)(Cn1cncn1)C1(Cl)CC1` (stereo not drawn) [PROTHIOCONAZOLE-DESTHIO] is 0.00187 µg/mL (≈ 0.00599 µM).
The same measure, in the same setting: as for `CC(C)(C)C(O)(CCc1ccc(Cl)cc1)Cn1cncn1` (stereo not drawn) [TEBUCONAZOLE], the figure is 0.041 µg/mL (≈ 0.133 µM).
Same read-out and setting: the figure for `CN(C/C=C/C#CC(C)(C)C)Cc1cccc2ccccc12` [TERBINAFINE] is 0.047 µg/mL (≈ 0.161 µM).

For another test, the system named is Zymoseptoria tritici. Put plainly: Fungicidal activity against Zymoseptoria tritici isolate OP7 with 120 bp insertion expressing CYP51 variant with combination of L50S, S188N, I381V, deltaY459/G460 and N513K mutations inoculated on compound pre-treated wheat cultivar Riband seedlings assessed as pycnidia formation at 28.13 ppm measured 21 days post fungal inoculation. Type of test: functional, organism-based.
In the case of `CC1(C)CCC(Cc2ccc(Cl)cc2)C1(O)Cn1cncn1` (stereo not drawn) [METCONAZOLE], the result was inactive.

A further test deals with Zymoseptoria tritici. Put plainly: Fungicidal activity against Zymoseptoria tritici isolate V18 with 120 bp insertion expressing CYP51 variant with combination of L50S, S188N, I381V, deltaY459/G460 and N513K mutations assessed as fungal growth inhibition. In kind it is functional, organism-based.
As to `OC(Cc1ccccc1Cl)(Cn1cncn1)C1(Cl)CC1` (stereo not drawn) [PROTHIOCONAZOLE-DESTHIO], the EC50 amounted to 0.126 µg/mL.
Same read-out and setting: as for `CC(C)(C)C(O)(CCc1ccc(Cl)cc1)Cn1cncn1` (stereo not drawn) [TEBUCONAZOLE], the figure is 15.4 µg/mL.
The same measure, in the same setting: as for `CN(C/C=C/C#CC(C)(C)C)Cc1cccc2ccccc12` [TERBINAFINE], the figure is 0.053 µg/mL.

For another test, the system named is Zymoseptoria tritici. Put plainly: Fungicidal activity against Zymoseptoria tritici isolate TAG74-3 with 120 bp insertion expressing CYP51 variant with combination of L50S, S188N, I381V, deltaY459/G460 and N513K mutations inoculated on compound pre-treated wheat cultivar Riband seedlings assessed as fungal DNA level at 28.13 ppm measured 21 days post fungal inoculation. Type of test: functional.
In the case of `CC1(C)CCC(Cc2ccc(Cl)cc2)C1(O)Cn1cncn1` (stereo not drawn) [METCONAZOLE], the Activity stood at 1600 pg.
